How the values were obtained:
Test in all cases: KINOMEscan binding assay
PFTK1 = target: T1, PFTK1 (Homo sapiens, UniProt O94921)
T1 construct: purchased DiscoveRx KINOMEscan
Summary of the method: (§1)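 i-CDK9 at 1 and 10 µM; competition binding against an immobilized active-site probe; >400-kinase panel.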

BRK = target: T2, BRK (Homo sapiens, UniProt Q13882); details: read-out: % Retention on Solid Support
T2 construct: purchased DiscoveRx KINOMEscan
Summary of the method: as §1

CAMK4 = target: T3, CAMK4 (Homo sapiens, UniProt Q16566); details: read-out: % Retention on Solid Support
T3 construct: purchased DiscoveRx KINOMEscan
Summary of the method: as §1

TXK = target: T4, TXK (Homo sapiens, UniProt P42681); details: read-out: % Retention on Solid Support
T4 construct: purchased DiscoveRx KINOMEscan
Summary of the method: as §1

EGFR(L747-T751del,Sins) = tested on: EGFR(L747-T751del,Sins)
Summary of the method: as §1

VEGFR2 = target: T5, VEGFR2 (Homo sapiens, UniProt P35968); details: read-out: % Retention on Solid Support
T5 construct: purchased DiscoveRx KINOMEscan
Summary of the method: as §1

MST1R = target: T6, MST1R (Homo sapiens, UniProt Q04912); details: read-out: % Retention on Solid Support
T6 construct: purchased DiscoveRx KINOMEscan
Summary of the method: as §1

CLK2 = target: T7, CLK2 (Homo sapiens, UniProt P49760); details: read-out: % Retention on Solid Support
T7 construct: purchased DiscoveRx KINOMEscan
Summary of the method: as §1

STK35 = target: T8, STK35 (Homo sapiens, UniProt Q8TDR2); details: read-out: % Retention on Solid Support
T8 construct: purchased DiscoveRx KINOMEscan
T8 sequence (Q8TDR2 whole entry): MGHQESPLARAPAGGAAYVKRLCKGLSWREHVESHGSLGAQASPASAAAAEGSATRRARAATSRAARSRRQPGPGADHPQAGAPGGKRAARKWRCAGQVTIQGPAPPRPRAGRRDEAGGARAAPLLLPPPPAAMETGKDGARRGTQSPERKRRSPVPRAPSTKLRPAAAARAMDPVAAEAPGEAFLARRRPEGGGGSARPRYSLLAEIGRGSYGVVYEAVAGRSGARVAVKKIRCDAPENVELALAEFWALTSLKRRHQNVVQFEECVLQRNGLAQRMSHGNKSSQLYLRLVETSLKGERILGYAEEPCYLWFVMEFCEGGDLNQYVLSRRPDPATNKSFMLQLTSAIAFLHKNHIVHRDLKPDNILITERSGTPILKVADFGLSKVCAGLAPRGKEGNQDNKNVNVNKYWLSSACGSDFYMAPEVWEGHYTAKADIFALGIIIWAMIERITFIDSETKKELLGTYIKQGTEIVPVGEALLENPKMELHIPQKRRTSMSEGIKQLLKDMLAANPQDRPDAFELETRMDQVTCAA
Summary of the method: as §1

CLK4 = target: T9, CLK4 (Homo sapiens, UniProt Q9HAZ1); details: read-out: % Retention on Solid Support
T9 construct: purchased DiscoveRx KINOMEscan
T9 sequence (Q9HAZ1 whole entry): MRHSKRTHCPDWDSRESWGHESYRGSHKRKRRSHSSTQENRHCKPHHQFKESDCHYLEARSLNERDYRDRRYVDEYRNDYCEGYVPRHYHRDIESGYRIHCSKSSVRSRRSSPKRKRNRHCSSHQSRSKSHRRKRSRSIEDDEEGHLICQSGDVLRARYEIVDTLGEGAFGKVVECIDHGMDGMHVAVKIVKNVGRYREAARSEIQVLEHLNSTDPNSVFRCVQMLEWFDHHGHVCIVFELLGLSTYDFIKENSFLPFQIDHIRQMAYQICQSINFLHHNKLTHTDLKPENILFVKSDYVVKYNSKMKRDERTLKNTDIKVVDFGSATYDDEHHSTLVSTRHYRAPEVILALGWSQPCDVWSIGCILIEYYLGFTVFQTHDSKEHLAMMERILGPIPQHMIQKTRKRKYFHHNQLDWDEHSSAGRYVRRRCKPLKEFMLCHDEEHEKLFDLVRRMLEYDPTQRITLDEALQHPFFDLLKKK
Summary of the method: as §1

PKN2 = target: T10, PKN2 (Homo sapiens, UniProt Q16513); details: read-out: % Retention on Solid Support
T10 construct: purchased DiscoveRx KINOMEscan
Summary of the method: as §1

TNK1 = target: T11, TNK1 (Homo sapiens, UniProt Q13470); details: read-out: % Retention on Solid Support
T11 construct: purchased DiscoveRx KINOMEscan
Summary of the method: as §1

EGFR(T790M) = target: T12, EGFR(T790M) (Homo sapiens, UniProt P00533, T790M); details: 1 µM i-CDK9
T12 construct: purchased DiscoveRx KINOMEscan
Summary of the method: as §1

IRAK1 = target: T13, IRAK1 (Homo sapiens, UniProt P51617); details: read-out: % Retention on Solid Support
T13 construct: purchased DiscoveRx KINOMEscan
T13 sequence (P51617 whole entry): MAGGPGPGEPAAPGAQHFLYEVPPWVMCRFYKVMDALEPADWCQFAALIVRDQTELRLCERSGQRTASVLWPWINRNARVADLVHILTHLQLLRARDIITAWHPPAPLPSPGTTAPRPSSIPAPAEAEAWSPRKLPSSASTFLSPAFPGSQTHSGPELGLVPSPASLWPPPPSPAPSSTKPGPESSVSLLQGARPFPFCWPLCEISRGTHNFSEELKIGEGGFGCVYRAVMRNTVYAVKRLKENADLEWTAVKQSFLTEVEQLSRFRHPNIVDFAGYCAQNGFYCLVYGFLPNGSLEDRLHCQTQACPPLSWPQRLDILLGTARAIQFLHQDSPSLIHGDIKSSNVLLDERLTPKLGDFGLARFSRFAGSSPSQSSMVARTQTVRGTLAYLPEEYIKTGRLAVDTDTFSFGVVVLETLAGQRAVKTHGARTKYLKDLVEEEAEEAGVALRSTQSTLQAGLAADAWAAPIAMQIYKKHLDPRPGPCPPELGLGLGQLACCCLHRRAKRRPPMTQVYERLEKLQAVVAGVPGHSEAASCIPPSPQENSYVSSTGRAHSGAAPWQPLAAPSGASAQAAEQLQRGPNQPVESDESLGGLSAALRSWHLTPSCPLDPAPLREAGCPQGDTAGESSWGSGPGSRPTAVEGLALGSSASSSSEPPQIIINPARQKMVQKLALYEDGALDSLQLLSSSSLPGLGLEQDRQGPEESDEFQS
Summary of the method: as §1

RET(V804L) = target: T14, RET(V804L) (Homo sapiens, UniProt P07949, V804L); details: read-out: % Retention on Solid Support
T14 construct: purchased DiscoveRx KINOMEscan
T14 sequence (P07949 29-1114 V804L): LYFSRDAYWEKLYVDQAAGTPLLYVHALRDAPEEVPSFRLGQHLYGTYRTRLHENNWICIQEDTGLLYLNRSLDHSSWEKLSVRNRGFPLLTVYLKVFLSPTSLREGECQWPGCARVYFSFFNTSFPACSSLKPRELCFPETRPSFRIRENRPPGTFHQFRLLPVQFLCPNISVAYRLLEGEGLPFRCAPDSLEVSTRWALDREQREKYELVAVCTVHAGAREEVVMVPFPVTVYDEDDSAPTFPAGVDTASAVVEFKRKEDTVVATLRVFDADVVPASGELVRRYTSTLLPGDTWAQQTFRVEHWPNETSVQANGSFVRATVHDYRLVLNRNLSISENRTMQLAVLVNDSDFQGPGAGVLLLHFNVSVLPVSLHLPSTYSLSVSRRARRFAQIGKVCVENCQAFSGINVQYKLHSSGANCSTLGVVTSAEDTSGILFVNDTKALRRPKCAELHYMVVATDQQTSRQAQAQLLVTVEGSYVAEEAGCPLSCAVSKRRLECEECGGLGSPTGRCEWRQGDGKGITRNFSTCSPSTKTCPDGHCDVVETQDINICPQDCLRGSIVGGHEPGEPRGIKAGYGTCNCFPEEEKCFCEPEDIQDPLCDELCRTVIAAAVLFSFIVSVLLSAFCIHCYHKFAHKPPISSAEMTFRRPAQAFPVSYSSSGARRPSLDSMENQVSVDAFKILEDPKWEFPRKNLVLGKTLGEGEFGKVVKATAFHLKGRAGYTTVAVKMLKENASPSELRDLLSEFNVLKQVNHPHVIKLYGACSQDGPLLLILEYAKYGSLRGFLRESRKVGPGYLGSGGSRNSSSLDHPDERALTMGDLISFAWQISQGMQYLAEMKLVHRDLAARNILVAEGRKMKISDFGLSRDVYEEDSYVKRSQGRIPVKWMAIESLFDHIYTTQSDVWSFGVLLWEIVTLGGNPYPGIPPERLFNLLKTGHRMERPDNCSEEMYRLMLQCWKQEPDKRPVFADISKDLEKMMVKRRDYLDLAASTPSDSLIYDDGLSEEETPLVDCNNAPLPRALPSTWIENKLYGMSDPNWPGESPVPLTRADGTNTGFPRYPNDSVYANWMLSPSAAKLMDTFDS
Summary of the method: as §1

IKK-epsilon = target: T15, IKK-epsilon (Homo sapiens, UniProt Q14164); details: read-out: % Retention on Solid Support
T15 construct: purchased DiscoveRx KINOMEscan
Summary of the method: as §1

PRKG1 = target: T16, PRKG1 (Homo sapiens, UniProt Q13976); details: read-out: % Retention on Solid Support
T16 construct: purchased DiscoveRx KINOMEscan
T16 sequence (Q13976 whole entry): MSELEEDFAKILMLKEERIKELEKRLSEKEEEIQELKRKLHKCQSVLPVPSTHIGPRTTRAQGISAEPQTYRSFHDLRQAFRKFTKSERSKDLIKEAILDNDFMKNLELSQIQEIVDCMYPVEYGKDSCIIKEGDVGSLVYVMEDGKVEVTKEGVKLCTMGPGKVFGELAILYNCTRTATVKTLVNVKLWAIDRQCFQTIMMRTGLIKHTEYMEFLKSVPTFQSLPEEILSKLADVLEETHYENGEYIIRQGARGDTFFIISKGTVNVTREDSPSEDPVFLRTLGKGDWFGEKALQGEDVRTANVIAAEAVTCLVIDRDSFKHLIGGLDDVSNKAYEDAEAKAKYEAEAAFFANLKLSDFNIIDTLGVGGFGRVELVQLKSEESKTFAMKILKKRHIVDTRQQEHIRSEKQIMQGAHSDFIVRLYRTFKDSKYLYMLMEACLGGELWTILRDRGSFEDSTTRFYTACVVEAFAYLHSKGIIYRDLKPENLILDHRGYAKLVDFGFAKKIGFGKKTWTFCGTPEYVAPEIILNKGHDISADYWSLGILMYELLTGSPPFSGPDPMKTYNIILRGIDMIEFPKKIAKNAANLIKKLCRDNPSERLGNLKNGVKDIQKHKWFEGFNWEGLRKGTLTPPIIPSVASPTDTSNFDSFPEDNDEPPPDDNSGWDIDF
Summary of the method: as §1

DYRK2 = target: T17, DYRK2 (Homo sapiens, UniProt Q92630); details: read-out: % Retention on Solid Support
T17 construct: purchased DiscoveRx KINOMEscan
T17 sequence (Q92630 1-601): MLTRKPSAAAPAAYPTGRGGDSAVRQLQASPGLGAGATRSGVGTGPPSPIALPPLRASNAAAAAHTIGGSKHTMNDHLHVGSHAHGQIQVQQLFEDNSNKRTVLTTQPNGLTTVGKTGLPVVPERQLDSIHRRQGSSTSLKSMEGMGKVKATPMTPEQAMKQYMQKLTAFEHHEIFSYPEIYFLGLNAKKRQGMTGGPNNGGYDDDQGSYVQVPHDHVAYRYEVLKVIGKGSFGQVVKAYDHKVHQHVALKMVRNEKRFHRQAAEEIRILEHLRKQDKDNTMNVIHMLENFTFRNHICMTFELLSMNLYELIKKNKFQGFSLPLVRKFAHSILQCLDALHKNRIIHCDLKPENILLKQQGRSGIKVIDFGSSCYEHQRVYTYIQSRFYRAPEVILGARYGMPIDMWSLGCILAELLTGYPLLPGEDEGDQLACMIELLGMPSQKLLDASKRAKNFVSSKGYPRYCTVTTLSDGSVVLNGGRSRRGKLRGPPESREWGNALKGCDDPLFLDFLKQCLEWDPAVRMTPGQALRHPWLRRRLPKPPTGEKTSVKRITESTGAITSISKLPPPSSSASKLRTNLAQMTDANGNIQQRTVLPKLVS
Summary of the method: as §1

KIT(D816V) = target: T18, KIT(D816V) (Homo sapiens, UniProt P10721, D816V); details: read-out: % Retention on Solid Support
T18 construct: purchased DiscoveRx KINOMEscan
Summary of the method: as §1

ABL1-phosphorylated = target: T19, ABL1-phosphorylated (Homo sapiens, UniProt P00519); details: 1 µM i-CDK9; read-out: % Retention on Solid Support
T19 construct: purchased DiscoveRx KINOMEscan
Summary of the method: as §1

PRKCE = target: T20, PRKCE (Homo sapiens, UniProt Q02156); details: read-out: % Retention on Solid Support
T20 construct: purchased DiscoveRx KINOMEscan
Summary of the method: as §1

TRKB = target: T21, TRKB (Homo sapiens, UniProt Q16620); details: read-out: % Retention on Solid Support
T21 construct: purchased DiscoveRx KINOMEscan
Summary of the method: as §1

CDK7 = target: T22, CDK7 (Homo sapiens, UniProt P50613); details: read-out: % Retention on Solid Support
T22 construct: purchased DiscoveRx KINOMEscan
T22 sequence (P50613 whole entry): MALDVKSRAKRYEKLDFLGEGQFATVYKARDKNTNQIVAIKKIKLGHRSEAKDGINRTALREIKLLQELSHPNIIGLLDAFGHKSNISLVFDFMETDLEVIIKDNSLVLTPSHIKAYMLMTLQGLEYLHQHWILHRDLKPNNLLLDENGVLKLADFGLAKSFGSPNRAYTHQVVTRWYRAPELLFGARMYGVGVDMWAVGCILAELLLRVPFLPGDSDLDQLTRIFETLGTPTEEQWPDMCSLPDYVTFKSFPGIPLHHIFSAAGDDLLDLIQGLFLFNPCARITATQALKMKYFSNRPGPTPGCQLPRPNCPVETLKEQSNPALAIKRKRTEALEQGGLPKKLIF
Summary of the method: as §1

T1 sequence (O94921 whole entry): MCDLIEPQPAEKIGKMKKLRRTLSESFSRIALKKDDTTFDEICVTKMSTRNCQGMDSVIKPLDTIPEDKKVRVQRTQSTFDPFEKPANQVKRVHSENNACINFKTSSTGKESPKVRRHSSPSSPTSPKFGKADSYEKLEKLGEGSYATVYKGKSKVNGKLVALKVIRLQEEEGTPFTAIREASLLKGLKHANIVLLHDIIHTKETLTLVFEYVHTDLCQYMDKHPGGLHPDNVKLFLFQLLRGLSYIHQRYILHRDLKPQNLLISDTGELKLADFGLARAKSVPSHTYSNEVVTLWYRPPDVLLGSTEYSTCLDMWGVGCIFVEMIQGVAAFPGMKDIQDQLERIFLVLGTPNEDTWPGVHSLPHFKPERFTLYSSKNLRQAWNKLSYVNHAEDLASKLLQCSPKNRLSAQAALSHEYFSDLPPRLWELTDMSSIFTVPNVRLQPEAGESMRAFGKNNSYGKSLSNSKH
T2 sequence (Q13882 whole entry): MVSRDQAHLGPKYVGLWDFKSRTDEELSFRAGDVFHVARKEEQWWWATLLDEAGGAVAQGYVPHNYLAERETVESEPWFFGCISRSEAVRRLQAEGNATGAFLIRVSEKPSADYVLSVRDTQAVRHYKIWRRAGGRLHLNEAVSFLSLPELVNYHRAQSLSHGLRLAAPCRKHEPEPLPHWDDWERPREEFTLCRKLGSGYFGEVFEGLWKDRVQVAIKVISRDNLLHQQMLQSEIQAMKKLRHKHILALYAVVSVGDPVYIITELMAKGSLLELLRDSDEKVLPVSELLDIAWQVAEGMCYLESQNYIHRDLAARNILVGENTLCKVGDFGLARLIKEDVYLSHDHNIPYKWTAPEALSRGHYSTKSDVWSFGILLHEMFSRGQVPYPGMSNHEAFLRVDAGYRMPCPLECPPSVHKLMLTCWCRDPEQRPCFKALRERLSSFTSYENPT

Q: Which results are given for N[C@H]1CC[C@H](Nc2cc(-c3cccc(NCc4cccc(F)c4)n3)c(Cl)cn2)CC1 [i-CDK9, N2′-(trans-4-aminocyclohexyl)-5′-chloro-N6-(3-fluorobenzyl)-2,4′-bipyridine-2′,6-diamine]?
A: % Retention on Solid Support (PFTK1; 1 µM i-CDK9): 76%; % Retention on Solid Support (PFTK1; 10 µM i-CDK9): 5.4%; remaining binding at 1 µM (BRK; 1 µM i-CDK9): 70%; remaining binding at 10 µM (BRK; 10 µM i-CDK9): 100%; remaining binding at 1 µM (CAMK4; 1 µM i-CDK9): 78%; remaining binding at 10 µM (CAMK4; 10 µM i-CDK9): 100%; remaining binding at 1 µM (TXK; 1 µM i-CDK9): 100%; remaining binding at 10 µM (TXK; 10 µM i-CDK9): 100%; % Retention on Solid Support (EGFR(L747-T751del,Sins); 1 µM i-CDK9): 82%; % Retention on Solid Support (EGFR(L747-T751del,Sins); 10 µM i-CDK9): 61%; remaining binding at 1 µM (VEGFR2; 1 µM i-CDK9): 83%; remaining binding at 10 µM (VEGFR2; 10 µM i-CDK9): 93%; remaining binding at 1 µM (MST1R; 1 µM i-CDK9): 100%; remaining binding at 10 µM (MST1R; 10 µM i-CDK9): 100%; remaining binding at 1 µM (CLK2; 1 µM i-CDK9): 61%; remaining binding at 10 µM (CLK2; 10 µM i-CDK9): 26%; remaining binding at 1 µM (STK35; 1 µM i-CDK9): 100%; remaining binding at 10 µM (STK35; 10 µM i-CDK9): 91%; remaining binding at 1 µM (CLK4; 1 µM i-CDK9): 18%; remaining binding at 10 µM (CLK4; 10 µM i-CDK9): 4.2%; remaining binding at 1 µM (PKN2; 1 µM i-CDK9): 52%; remaining binding at 10 µM (PKN2; 10 µM i-CDK9): 93%; remaining binding at 1 µM (TNK1; 1 µM i-CDK9): 100%; remaining binding at 10 µM (TNK1; 10 µM i-CDK9): 65%; % Retention on Solid Support (EGFR(T790M)): 100%; remaining binding at 1 µM (IRAK1; 1 µM i-CDK9): 100%; remaining binding at 10 µM (IRAK1; 10 µM i-CDK9): 73%; remaining binding at 1 µM (RET(V804L); 1 µM i-CDK9): 100%; remaining binding at 10 µM (RET(V804L); 10 µM i-CDK9): 79%; remaining binding at 1 µM (IKK-epsilon; 1 µM i-CDK9): 95%; remaining binding at 10 µM (IKK-epsilon; 10 µM i-CDK9): 100%; remaining binding at 1 µM (PRKG1; 1 µM i-CDK9): 81%; remaining binding at 10 µM (PRKG1; 10 µM i-CDK9): 88%; remaining binding at 1 µM (DYRK2; 1 µM i-CDK9): 7.1%; remaining binding at 10 µM (DYRK2; 10 µM i-CDK9): 33%; remaining binding at 1 µM (KIT(D816V); 1 µM i-CDK9): 100%; remaining binding at 10 µM (KIT(D816V); 10 µM i-CDK9): 100%; remaining binding at 1 µM (ABL1-phosphorylated): 67%; remaining binding at 1 µM (PRKCE; 1 µM i-CDK9): 100%; remaining binding at 10 µM (PRKCE; 10 µM i-CDK9): 100%; remaining binding at 1 µM (TRKB; 1 µM i-CDK9): 100%; remaining binding at 10 µM (TRKB; 10 µM i-CDK9): 100%; remaining binding at 1 µM (CDK7; 1 µM i-CDK9): 14%; remaining binding at 10 µM (CDK7; 10 µM i-CDK9): 11%
